These results are taken from ChEMBL document CHEMBL4837239, “Identification of Thieno[3,2-d]pyrimidine Derivatives as Dual Inhibitors of Focal Adhesion Kinase and FMS-like Tyrosine Kinase 3” (J Med Chem, 2021).

For data set [1], the system named is MDA-MB-231. The data set can be described thus: Antiproliferative activity against human MDA-MB-231 cells assessed as growth inhibition measured after 72 hrs by CellTiter-Glo assay. In kind it is functional. As to conditions: Homo sapiens, MDA-MB-231. A general note: ATP-based viability assays read luminescence as a measure of living cells.
Data set [2] deals with T1, Receptor-type tyrosine-protein kinase FLT3 (Homo sapiens), P36888 [D835Y].
T1 sequence (whole entry): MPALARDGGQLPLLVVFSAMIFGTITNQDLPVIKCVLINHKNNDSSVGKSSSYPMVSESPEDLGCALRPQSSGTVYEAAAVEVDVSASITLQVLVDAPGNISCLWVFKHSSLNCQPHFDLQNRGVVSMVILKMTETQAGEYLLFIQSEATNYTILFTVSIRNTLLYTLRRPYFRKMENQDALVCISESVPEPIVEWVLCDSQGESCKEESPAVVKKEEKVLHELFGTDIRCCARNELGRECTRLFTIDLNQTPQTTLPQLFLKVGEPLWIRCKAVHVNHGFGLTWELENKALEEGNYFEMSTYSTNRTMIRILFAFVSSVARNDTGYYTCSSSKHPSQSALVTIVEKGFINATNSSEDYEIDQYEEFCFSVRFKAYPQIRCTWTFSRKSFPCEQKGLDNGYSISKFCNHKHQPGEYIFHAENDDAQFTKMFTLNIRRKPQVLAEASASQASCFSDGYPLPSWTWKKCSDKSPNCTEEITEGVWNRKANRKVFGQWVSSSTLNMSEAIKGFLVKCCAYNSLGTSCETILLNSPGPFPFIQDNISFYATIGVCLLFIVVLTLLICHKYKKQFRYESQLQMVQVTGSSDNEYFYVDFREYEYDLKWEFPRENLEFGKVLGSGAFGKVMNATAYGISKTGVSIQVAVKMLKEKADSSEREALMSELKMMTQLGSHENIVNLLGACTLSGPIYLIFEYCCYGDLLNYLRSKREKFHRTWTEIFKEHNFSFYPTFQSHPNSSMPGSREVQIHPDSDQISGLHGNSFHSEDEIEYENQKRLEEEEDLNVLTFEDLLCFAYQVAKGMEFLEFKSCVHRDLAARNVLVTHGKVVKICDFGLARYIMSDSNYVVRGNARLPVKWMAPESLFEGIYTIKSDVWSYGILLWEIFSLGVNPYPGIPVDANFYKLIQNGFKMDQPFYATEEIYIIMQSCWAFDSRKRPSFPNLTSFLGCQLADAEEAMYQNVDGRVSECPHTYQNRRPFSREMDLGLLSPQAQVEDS
The data set can be described thus: Inhibition of FLT3-D835Y mutant (unknown origin) expressed in mouse Ba/F3 cells assessed as decrease in STAT5 phosphorylation at 10 nM by Western blot analysis. In kind it is cell-based. As to conditions: BaF3. In general terms: In western blotting, separated proteins are transferred to a membrane and probed.

The test system is the same in data set [3]. The data set can be described thus: Inhibition of FLT3-D835Y mutant (unknown origin) expressed in mouse BaF3 cells assessed as decrease in ERK phosphorylation at 1 nM by Western blot analysis. Type of data set: cell-based.
Data set [4] can be described thus: Toxicity in NSG orthotopic mouse xenografted with human MDA-MB-231 cells assessed as change in body weight at 40 to 70 mg/kg, po once daily measured for 2 weeks. Type of data set: organism-based. As to conditions: in vivo, 336 h, dose 40-70 mg/kg.
Data set [5] in a line: Toxicity in Balb/c mouse xenografted with human MDA-MB-231 cells assessed as change in body weight at 40 to 70 mg/kg, po once daily measured for 16 days. As to conditions: in vivo, 384 h, dose 40-70 mg/kg, time 16 day. In kind it is organism-based. (In general: Xenograft models place foreign cells or tissue in a host animal.)
Data set [6] relates to T1, Receptor-type tyrosine-protein kinase FLT3 (Homo sapiens), P36888 [D835Y]. Description: Inhibition of FLT3-D835Y mutant (unknown origin) expressed in mouse Ba/F3 cells assessed as decrease in ERK phosphorylation at 10 nM by Western blot analysis. Type of data set: cell-based. As to conditions: BaF3.
The target of data set [7] is Proto-oncogene tyrosine-protein kinase receptor Ret (Homo sapiens, UniProt P07949). Description: Inhibition of RET (unknown origin) at 0.1 uM.
Another data set deals with HCT-116. The data set can be described thus: Growth inhibition of anchorage-Independent human HCT-116 cells assessed as decrease in size incubated for 72 hrs by MTT assay. In kind it is functional, cell-based. As to conditions: dose 1-10 µM.
The target of data set [8] is Cyclin-dependent kinase 4 (Homo sapiens, UniProt P11802). The data set can be described thus: Inhibition of CDK4 (unknown origin).
The target of data set [9] is T2, Focal adhesion kinase 1 (Homo sapiens, UniProt Q05397). The data set can be described thus: Inhibition of FAK in human MDA-MB-231 cells assessed as inhibition of Pyk2 phosphorylation at 0.5 to 5 uM incubated for 24 hrs by Western blot analysis. As to conditions: dose 0.5-5 µM. Type of data set: cell-based.
Target sequence in this assay (Q05397 2-1052 limits assumed): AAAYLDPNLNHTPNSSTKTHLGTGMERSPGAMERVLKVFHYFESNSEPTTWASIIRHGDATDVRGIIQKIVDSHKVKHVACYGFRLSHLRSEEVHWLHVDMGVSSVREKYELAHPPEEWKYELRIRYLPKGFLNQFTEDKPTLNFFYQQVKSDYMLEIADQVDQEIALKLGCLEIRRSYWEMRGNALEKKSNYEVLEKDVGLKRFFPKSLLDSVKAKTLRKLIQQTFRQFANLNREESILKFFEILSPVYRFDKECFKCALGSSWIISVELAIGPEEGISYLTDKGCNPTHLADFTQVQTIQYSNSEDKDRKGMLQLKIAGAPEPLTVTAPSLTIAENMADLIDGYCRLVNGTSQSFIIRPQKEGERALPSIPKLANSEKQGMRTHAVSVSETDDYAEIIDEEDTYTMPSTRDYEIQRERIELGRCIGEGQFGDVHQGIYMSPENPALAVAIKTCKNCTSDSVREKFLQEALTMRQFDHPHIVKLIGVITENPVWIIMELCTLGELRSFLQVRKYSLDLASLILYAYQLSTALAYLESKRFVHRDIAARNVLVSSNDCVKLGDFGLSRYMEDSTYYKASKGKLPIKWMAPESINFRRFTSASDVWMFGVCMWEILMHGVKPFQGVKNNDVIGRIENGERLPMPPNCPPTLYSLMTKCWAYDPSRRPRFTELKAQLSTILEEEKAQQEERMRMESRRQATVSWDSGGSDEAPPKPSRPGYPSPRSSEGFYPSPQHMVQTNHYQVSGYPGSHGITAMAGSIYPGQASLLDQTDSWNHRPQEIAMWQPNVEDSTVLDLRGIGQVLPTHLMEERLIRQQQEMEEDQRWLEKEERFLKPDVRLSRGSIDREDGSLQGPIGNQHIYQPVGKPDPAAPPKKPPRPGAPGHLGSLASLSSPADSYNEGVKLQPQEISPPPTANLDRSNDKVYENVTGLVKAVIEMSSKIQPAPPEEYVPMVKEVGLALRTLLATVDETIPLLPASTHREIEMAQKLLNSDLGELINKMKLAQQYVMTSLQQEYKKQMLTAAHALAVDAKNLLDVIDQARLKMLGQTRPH
Data set [10] has as its system MDA-MB-231. The data set can be described thus: Antimetastatic activity against human MDA-MB-231 cells expressing firefly luciferase xenografted NSG orthotopic mouse model assessed as reduction in luminescence intensity at liver at 70 mg/kg, po once daily measured for 2 weeks. Type of data set: functional, organism-based.
The subject of data set [11] is MDA-MB-231. The data set can be described thus: Growth inhibition of anchorage-Independent human MDA-MB-231 cells assessed as decrease in number of colonies at 10 uM incubated for 72 hrs by MTT assay relative to control. In kind it is functional.
In data set [12] the target is Ephrin type-B receptor 1 (Homo sapiens) (UniProt P54762). The data set can be described thus: Inhibition of EphB1 (unknown origin) at 0.1 uM.
Data set [13] has as its system MDA-MB-231. Description: Disruption of focal adhesion of human MDA-MB-231 cells assessed as decrease in vinculin measured after 3 hrs by Alexa Fluor 488-conjugated Ab based fluorescence analysis. In kind it is functional, cell-based. As to conditions: dose 1-10 µM.
The next data set addresses T3, CYP1A2 (Homo sapiens, UniProt P05177).
T3 sequence (P05177 whole entry): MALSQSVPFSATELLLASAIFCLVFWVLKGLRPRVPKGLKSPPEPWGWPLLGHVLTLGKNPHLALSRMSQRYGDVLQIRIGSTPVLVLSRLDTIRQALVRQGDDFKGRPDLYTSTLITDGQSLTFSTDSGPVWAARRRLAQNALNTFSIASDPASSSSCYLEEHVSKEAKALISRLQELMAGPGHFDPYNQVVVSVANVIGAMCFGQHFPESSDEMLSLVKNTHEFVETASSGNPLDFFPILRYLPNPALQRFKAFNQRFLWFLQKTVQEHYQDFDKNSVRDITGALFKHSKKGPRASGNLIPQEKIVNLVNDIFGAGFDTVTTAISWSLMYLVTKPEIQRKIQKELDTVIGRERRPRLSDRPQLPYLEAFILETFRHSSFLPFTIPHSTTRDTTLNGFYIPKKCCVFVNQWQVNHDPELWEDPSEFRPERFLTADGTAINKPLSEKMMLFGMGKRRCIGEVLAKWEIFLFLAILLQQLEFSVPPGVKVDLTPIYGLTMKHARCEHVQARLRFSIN
Description: Inhibition of CYP1A2 (unknown origin) at 10 uM relative to control. Type of data set: ADME.

Data set [14] deals with Tyrosine-protein kinase JAK1 (Homo sapiens, UniProt P23458). The data set can be described thus: Inhibition of JAK1 (unknown origin).
In data set [15] the target is Mitogen-activated protein kinase; ERK1/ERK2 (Homo sapiens) (UniProt P27361+P28482). The data set can be described thus: Inhibition of ERK1/2 autophosphorylation in human MDA-MB-231 cells at 0.5 to 5 uM incubated for 24 hrs by Western blot analysis. In kind it is cell-based. As to conditions: dose 0.5-5 µM.
For data set [16], the target named is T2, Focal adhesion kinase 1. Description: Inhibition of recombinant FAK (unknown origin) by radiometric kinase assay.
Target sequence in this assay (Q05397 whole entry): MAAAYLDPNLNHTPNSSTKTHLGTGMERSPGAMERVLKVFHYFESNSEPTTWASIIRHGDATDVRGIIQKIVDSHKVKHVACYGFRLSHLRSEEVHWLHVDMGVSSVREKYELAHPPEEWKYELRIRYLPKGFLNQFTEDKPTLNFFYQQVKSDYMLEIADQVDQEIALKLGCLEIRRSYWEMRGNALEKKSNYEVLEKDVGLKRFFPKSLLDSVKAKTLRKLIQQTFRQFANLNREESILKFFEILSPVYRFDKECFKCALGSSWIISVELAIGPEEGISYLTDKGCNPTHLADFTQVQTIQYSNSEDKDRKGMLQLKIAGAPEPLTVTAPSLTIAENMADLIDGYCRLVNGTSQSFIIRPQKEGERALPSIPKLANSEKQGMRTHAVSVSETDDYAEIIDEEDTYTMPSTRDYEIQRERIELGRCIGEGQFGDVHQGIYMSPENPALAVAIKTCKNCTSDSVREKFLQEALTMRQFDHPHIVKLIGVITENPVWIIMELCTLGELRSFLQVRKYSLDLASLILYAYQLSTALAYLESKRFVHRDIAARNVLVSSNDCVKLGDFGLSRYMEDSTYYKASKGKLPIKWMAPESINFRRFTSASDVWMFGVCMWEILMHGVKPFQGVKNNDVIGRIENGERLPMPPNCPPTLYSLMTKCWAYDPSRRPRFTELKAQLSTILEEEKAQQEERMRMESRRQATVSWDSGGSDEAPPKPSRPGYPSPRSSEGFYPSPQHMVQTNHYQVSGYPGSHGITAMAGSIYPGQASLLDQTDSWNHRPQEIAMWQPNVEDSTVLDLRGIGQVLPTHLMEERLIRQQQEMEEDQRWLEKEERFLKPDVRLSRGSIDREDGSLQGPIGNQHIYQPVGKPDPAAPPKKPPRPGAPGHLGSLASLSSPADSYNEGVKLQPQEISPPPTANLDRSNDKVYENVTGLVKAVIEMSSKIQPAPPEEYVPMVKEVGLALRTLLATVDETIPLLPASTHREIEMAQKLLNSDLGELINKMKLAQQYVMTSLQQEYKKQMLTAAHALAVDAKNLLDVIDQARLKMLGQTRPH
Data set [17] concerns MDA-MB-231. Description: Antimetastatic activity against human MDA-MB-231 cells expressing firefly luciferase xenografted NSG orthotopic mouse model assessed as reduction in luminescence intensity at axillary lymph node at 70 mg/kg, po once daily measured for 2 weeks. Type of data set: functional, organism-based.

The structures appear in SMILES notation. Calls of active or inactive are those of the source. The rule behind the calls is not given here.

A word on the GI50: it is the concentration giving 50% growth inhibition. One may read the inhibition as the drop in the measured response relative to a control, in per cent. As a reminder, the IC50 is the concentration that gives 50% inhibition.

Sequence of Cyclin-dependent kinase 4 (P11802 whole entry): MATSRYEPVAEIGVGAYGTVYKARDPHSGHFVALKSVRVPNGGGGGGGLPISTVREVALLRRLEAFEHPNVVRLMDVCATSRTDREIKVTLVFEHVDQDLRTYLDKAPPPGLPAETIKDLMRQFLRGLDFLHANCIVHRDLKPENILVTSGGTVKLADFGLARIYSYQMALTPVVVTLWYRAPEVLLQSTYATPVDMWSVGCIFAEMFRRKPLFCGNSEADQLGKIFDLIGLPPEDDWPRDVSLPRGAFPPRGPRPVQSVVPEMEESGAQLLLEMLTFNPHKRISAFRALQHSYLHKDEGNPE
Sequence of Mitogen-activated protein kinase; ERK1/ERK2 (Homo sapiens) (P27361 whole entry, looked up): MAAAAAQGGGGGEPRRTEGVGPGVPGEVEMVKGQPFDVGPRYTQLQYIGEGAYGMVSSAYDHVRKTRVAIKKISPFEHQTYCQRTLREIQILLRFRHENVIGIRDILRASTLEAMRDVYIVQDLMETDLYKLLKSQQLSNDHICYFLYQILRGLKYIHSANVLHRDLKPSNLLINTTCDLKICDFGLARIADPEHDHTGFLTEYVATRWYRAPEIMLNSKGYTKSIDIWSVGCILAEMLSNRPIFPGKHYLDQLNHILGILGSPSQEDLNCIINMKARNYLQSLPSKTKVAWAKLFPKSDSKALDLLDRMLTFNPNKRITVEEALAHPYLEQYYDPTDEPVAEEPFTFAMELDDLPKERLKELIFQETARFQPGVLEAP
Sequence of Mitogen-activated protein kinase; ERK1/ERK2 (Homo sapiens) (P28482 whole entry, looked up): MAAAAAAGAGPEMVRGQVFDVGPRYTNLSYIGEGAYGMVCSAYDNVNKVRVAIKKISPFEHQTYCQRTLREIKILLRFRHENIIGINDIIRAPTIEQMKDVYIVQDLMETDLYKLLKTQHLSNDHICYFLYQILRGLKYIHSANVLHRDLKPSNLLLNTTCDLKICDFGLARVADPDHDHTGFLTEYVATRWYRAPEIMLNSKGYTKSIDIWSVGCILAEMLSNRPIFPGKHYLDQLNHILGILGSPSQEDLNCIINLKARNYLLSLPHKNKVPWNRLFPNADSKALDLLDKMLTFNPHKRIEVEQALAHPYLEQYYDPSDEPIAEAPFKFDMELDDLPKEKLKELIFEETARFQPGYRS
Sequence of Ephrin type-B receptor 1 (Homo sapiens) (P54762 whole entry): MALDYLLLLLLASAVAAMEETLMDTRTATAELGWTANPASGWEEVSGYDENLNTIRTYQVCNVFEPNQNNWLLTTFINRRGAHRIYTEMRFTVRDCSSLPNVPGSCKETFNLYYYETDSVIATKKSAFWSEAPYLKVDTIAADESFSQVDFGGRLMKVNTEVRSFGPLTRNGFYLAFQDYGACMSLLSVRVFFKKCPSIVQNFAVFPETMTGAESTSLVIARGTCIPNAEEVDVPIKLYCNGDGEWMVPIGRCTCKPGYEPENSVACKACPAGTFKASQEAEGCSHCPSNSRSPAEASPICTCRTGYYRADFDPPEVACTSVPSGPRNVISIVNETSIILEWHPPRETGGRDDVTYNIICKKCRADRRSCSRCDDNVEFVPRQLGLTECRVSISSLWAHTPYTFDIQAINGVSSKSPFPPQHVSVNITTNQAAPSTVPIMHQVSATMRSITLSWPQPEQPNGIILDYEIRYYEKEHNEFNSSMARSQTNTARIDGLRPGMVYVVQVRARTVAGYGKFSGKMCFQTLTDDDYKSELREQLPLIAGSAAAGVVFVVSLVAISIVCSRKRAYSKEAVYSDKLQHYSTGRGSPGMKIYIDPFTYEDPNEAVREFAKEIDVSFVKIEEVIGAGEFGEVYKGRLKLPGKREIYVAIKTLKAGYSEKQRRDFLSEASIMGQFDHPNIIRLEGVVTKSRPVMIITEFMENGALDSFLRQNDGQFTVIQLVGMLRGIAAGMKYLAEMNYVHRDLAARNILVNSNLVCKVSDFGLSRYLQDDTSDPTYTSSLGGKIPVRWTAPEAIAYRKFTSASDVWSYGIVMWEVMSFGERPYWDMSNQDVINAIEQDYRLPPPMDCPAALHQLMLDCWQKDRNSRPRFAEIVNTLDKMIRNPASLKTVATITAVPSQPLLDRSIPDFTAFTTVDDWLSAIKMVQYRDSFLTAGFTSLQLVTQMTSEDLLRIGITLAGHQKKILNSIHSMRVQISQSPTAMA

For `CCN1CCN(c2ccc(Nc3ncc4scc(-c5cccc(NS(C)(=O)=O)c5)c4n3)cc2)CC1`, the GI50 with MDA-MB-231 [1] turned out to be 470 nM. Also, the inhibition in data set [2] amounted to 100%; in data set [6], 100%; in data set [7] it was 95.3%; in [12], 91.1%. In addition, the inhibition result (in [3]; at Focal adhesion kinase 1 [9]) was “Active” each time. In addition, the Activity entry in [4] and in data set [5] was “Non-Toxic” in each case. Also, the “growth inhibition (GI)” value with HCT-116 is “Active”. Moreover, the IC50 was determined as 8.5 nM in data set [8], 1.8 nM in [14] and 7 nM on Focal adhesion kinase 1 [16]. Further, the result in the data set on MDA-MB-231 [10], in the data set with MDA-MB-231 [13] and in the data set with MDA-MB-231 [17] was Active. Further, the figures for the inhibition at 10 µM in the data set with MDA-MB-231 [11] and at CYP1A2 were 75% and 89.2%, respectively. Also, the inhibition entry in data set [15] is “inactive”.
